Measurements: publication PMC11277489, “Novel Piperazine Derivatives of Vindoline as Anticancer Agents” (International Journal of Molecular Sciences, 2024)

Legend:
[1] = tested on: HOP-62; experiment: NCI60 one-dose screen (10 μM), Non-small Cell Lung Cancer; format: cell-based; conditions: Homo sapiens; 10 μM; HOP-62, Non-small Cell Lung Cancer; read-out: Growth percent rate
[2] = tested on: NCI-H23; experiment: as above; format: cell-based; conditions: Homo sapiens; 10 μM; NCI-H23, Non-small Cell Lung Cancer; read-out: Growth percent rate
[3] = tested on: SW-620; experiment: NCI60 one-dose screen (10 μM), Colon Cancer; format: cell-based; conditions: Homo sapiens; 10 μM; SW-620, Colon Cancer; read-out: Growth percent rate
[4] = tested on: HT29; experiment: NCI60 one-dose screen (10 μM), Colon Cancer; format: cell-based; conditions: Homo sapiens, HT-29; 10 μM; HT29, Colon Cancer; read-out: Growth percent rate
[5] = tested on: MDA-MB-435; experiment: NCI60 one-dose screen (10 μM), Melanoma; format: cell-based; conditions: Homo sapiens; 10 μM; MDA-MB-435, Melanoma; read-out: Growth percent rate
[6] = tested on: UACC-257; experiment: NCI60 one-dose screen (10 μM), Melanoma; format: cell-based; conditions: Homo sapiens; 10 μM; UACC-257, Melanoma; read-out: Growth percent rate
[7] = tested on: ACHN; experiment: NCI60 one-dose screen (10 μM), Renal Cancer; format: cell-based; conditions: Homo sapiens, 10 μM, Renal Cancer, read-out: Growth percent rate
[8] = tested on: DU-145; experiment: NCI60 one-dose screen (10 μM), Prostate Cancer; format: cell-based; conditions: Homo sapiens; 10 μM; DU-145, Prostate Cancer; read-out: Growth percent rate
[9] = tested on: SNB-75; experiment: NCI60 one-dose screen (10 μM), CNS Cancer; format: cell-based, human; conditions: Homo sapiens; 10 μM; SNB-75, CNS Cancer; read-out: Growth percent rate
[10] = tested on: IGROV1; experiment: NCI60 one-dose screen (10 μM), Ovarian Cancer; format: cell-based; conditions: Homo sapiens, IGROV-1; 10 μM; IGROV1, Ovarian Cancer; read-out: Growth percent rate
[11] = tested on: A549/ATCC; experiment: NCI60 one-dose screen (10 μM), Non-small Cell Lung Cancer; format: cell-based; conditions: Homo sapiens; 10 μM; A549/ATCC, Non-small Cell Lung Cancer; read-out: Growth percent rate
[12] = tested on: CCRF-CEM; experiment: NCI60 one-dose screen (10 μM), Leukemia; format: cell-based; conditions: Homo sapiens, 10 μM, Leukemia, read-out: Growth percent rate
[13] = tested on: HCT-15; experiment: NCI60 one-dose screen (10 μM), Colon Cancer; format: cell-based; conditions: Homo sapiens; 10 μM; HCT-15, Colon Cancer; read-out: Growth percent rate
[14] = tested on: HL-60(TB); experiment: NCI60 one-dose screen (10 μM), Leukemia; format: cell-based; conditions: Homo sapiens; 10 μM; HL-60(TB), Leukemia; read-out: Growth percent rate
[15] = tested on: KM12; experiment: NCI60 one-dose screen (10 μM), Colon Cancer; format: cell-based, human; conditions: Homo sapiens; 10 μM; KM12, Colon Cancer; read-out: Growth percent rate
[16] = tested on: MOLT-4; experiment: NCI60 one-dose screen (10 μM), Leukemia; format: cell-based, human; conditions: for activity at 10 µM: Homo sapiens, MOLT-4, Leukemia, read-out: Growth percent rate
[17] = tested on: K-562; experiment: NCI60 one-dose screen (10 μM), Leukemia; format: cell-based; conditions: Homo sapiens, K562; 10 μM; K-562, Leukemia; read-out: Growth percent rate
[18] = tested on: LOX IMVI; experiment: NCI60 one-dose screen (10 μM), Melanoma; format: cell-based, human; conditions: Homo sapiens; 10 μM; LOX IMVI, Melanoma; read-out: Growth percent rate
[19] = tested on: MALME-3M; experiment: NCI60 one-dose screen (10 μM), Melanoma; format: cell-based; conditions: Homo sapiens; 10 μM; MALME-3M, Melanoma; read-out: Growth percent rate
[20] = tested on: SNB-19; experiment: NCI60 one-dose screen (10 μM), CNS Cancer; format: cell-based; conditions: Homo sapiens; 10 μM; SNB-19, CNS Cancer; read-out: Growth percent rate
[21] = tested on: NCI-H322M; experiment: NCI60 one-dose screen (10 μM), Non-small Cell Lung Cancer; format: cell-based; conditions: Homo sapiens, 10 μM, Non-small Cell Lung Cancer, read-out: Growth percent rate
[22] = tested on: SK-MEL-5; experiment: NCI60 one-dose screen (10 μM), Melanoma; format: cell-based, human; conditions: Homo sapiens; 10 μM; SK-MEL-5, Melanoma; read-out: Growth percent rate
[23] = tested on: TK-10; experiment: NCI60 one-dose screen (10 μM), Renal Cancer; format: cell-based; conditions: Homo sapiens; 10 μM; TK-10, Renal Cancer; read-out: Growth percent rate
[24] = tested on: U251; experiment: NCI60 one-dose screen (10 μM), CNS Cancer; format: cell-based; conditions: Homo sapiens, U-251; 10 μM; U251, CNS Cancer; read-out: Growth percent rate
[25] = tested on: RPMI-8226; experiment: NCI60 one-dose screen (10 μM), Leukemia; format: cell-based; conditions: Homo sapiens; 10 μM; RPMI-8226, Leukemia; read-out: Growth percent rate
[26] = tested on: SF-295; experiment: NCI60 one-dose screen (10 μM), CNS Cancer; format: cell-based; conditions: Homo sapiens; 10 μM; SF-295, CNS Cancer; read-out: Growth percent rate
[27] = tested on: SK-MEL-2; experiment: NCI60 one-dose screen (10 μM), Melanoma; format: cell-based; conditions: Homo sapiens; 10 μM; SK-MEL-2, Melanoma; read-out: Growth percent rate
[28] = tested on: OVCAR-8; experiment: NCI60 one-dose screen (10 μM), Ovarian Cancer; format: cell-based; conditions: Homo sapiens; 10 μM; OVCAR-8, Ovarian Cancer; read-out: Growth percent rate
[29] = tested on: COLO 205; experiment: NCI60 one-dose screen (10 μM), Colon Cancer; format: cell-based, human; conditions: Homo sapiens; 10 μM; COLO 205, Colon Cancer; read-out: Growth percent rate
[30] = tested on: SF-268; experiment: NCI60 one-dose screen (10 μM), CNS Cancer; format: cell-based; conditions: Homo sapiens; 10 μM; SF-268, CNS Cancer; read-out: Growth percent rate
[31] = tested on: 786–0; experiment: NCI60 one-dose screen (10 μM), Renal Cancer; format: cell-based; conditions: Homo sapiens; 10 μM; 786-0, Renal Cancer; read-out: Growth percent rate
[32] = tested on: SF-539; experiment: NCI60 one-dose screen (10 μM), CNS Cancer; format: cell-based, human; conditions: Homo sapiens; 10 μM; SF-539, CNS Cancer; read-out: Growth percent rate
[33] = tested on: A498; experiment: NCI60 one-dose screen (10 μM), Renal Cancer; format: cell-based; conditions: Homo sapiens; 10 μM; A498, Renal Cancer; read-out: Growth percent rate
[34] = tested on: OVCAR-4; experiment: NCI60 one-dose screen (10 μM), Ovarian Cancer; format: cell-based; conditions: Homo sapiens; 10 μM; OVCAR-4, Ovarian Cancer; read-out: Growth percent rate
[35] = tested on: M14; experiment: NCI60 one-dose screen (10 μM), Melanoma; format: cell-based; conditions: Homo sapiens; 10 μM; M14, Melanoma; read-out: Growth percent rate
[36] = tested on: RXF 393; experiment: NCI60 one-dose screen (10 μM), Renal Cancer; format: cell-based, human; conditions: Homo sapiens; 10 μM; RXF 393, Renal Cancer; read-out: Growth percent rate
[37] = tested on: SK-MEL-28; experiment: NCI60 one-dose screen (10 μM), Melanoma; format: cell-based; conditions: Homo sapiens; 10 μM; SK-MEL-28, Melanoma; read-out: Growth percent rate
[38] = tested on: NCI-H460; experiment: NCI60 one-dose screen (10 μM), Non-small Cell Lung Cancer; format: cell-based; conditions: Homo sapiens; 10 μM; NCI-H460, Non-small Cell Lung Cancer; read-out: Growth percent rate
[39] = tested on: MCF7; experiment: NCI60 one-dose screen (10 μM), Breast Cancer; format: cell-based; conditions: Homo sapiens; 10 μM; MCF7, Breast Cancer; read-out: Growth percent rate
[40] = tested on: CAKI-1; experiment: NCI60 one-dose screen (10 μM), Renal Cancer; format: cell-based; conditions: Homo sapiens; 10 μM; CAKI-1, Renal Cancer; read-out: Growth percent rate
[41] = tested on: 60 human tumor cell lines (NCI60); experiment: NCI60 one-dose screen (10 μM), whole panel; format: cell-based; conditions: for activity at 10 µM: mean over 60 human cancer cell lines, read-out: Growth percent rate, Mean

## CC[C@]12C=CCN3CC[C@@]4(c5ccc(OC)cc5N(C)[C@H]4[C@@](O)(C(=O)OC)[C@@H]1OC(=O)CCC(=O)N1CCN(C(c4ccc(F)cc4)c4ccc(F)cc4)CC1)[C@@H]32 [Compound 31]
[1]
  activity at 10 µM: -57%
[2]
  activity at 10 µM: -23.4%
[3]
  activity at 10 µM: -37%
[4]
  activity at 10 µM: -83.3%
[5]
  activity at 10 µM: -23.3%
[6]
  activity at 10 µM: -30.8%
[7]
  activity at 10 µM: -35.8%
[8]
  activity at 10 µM: -3.52%
[9]
  activity at 10 µM: -43.5%
[10]
  activity at 10 µM: -92.2%
[11]
  activity at 10 µM: 1.83%
[12]
  activity at 10 µM: -81.9%
[13]
  activity at 10 µM: 3.11%
[14]
  activity at 10 µM: -98.4%
[15]
  activity at 10 µM: -50.8%
[16]; 10 μM one-dose, MOLT-4 leukemia, negative = lethality
  growth percent rate: −98.81%
[16]
  activity at 10 µM: -98.8%
[17]
  activity at 10 µM: 7.65%
[18]
  activity at 10 µM: -56%
[19]
  activity at 10 µM: -16.6%
[20]
  activity at 10 µM: 8.85%
[21]
  activity at 10 µM: -0.86%
[22]
  activity at 10 µM: -88%
[23]
  activity at 10 µM: -32.1%
[24]
  activity at 10 µM: -15.1%
[25]
  activity at 10 µM: -98.1%
[26]
  activity at 10 µM: -61.1%
[27]
  activity at 10 µM: -85.4%
[28]
  activity at 10 µM: -13.2%
[29]
  activity at 10 µM: -45%
[30]
  activity at 10 µM: 7.32%
[31]
  activity at 10 µM: -40.3%
[32]
  activity at 10 µM: -38.4%
[33]
  activity at 10 µM: -61.6%
[34]
  activity at 10 µM: -34.6%
[35]
  activity at 10 µM: 0.99%
[36]
  activity at 10 µM: -56.3%
[37]
  activity at 10 µM: -6.67%
[38]
  activity at 10 µM: -60.9%
[39]
  activity at 10 µM: -28.7%
[40]
  activity at 10 µM: 1.73%
[41]
  activity at 10 µM: -41.8%

## CC[C@]12C=CCN3CC[C@@]4(c5ccc(OC)cc5N(C)[C@H]4[C@@](O)(C(=O)OC)[C@@H]1OC(=O)CCCN1CCN(Cc4ccc(C(F)(F)F)cc4)CC1)[C@@H]32 [Compound 23]
[1]
  activity at 10 µM: -86.7%
[2]
  activity at 10 µM: -71.3%
[3]
  activity at 10 µM: -87.1%
[4]
  activity at 10 µM: -54.4%
[5]
  activity at 10 µM: -95.3%
[6]
  activity at 10 µM: -82.2%
[7]
  activity at 10 µM: -78.1%
[8]
  activity at 10 µM: -64.9%
[9]
  activity at 10 µM: -68.8%
[10]
  activity at 10 µM: -71%
[11]
  activity at 10 µM: -67.8%
[12]
  activity at 10 µM: -63.1%
[13]
  activity at 10 µM: -68.1%
[14]
  activity at 10 µM: -65.8%
[15]
  activity at 10 µM: -70.9%
[16]
  activity at 10 µM: -68.5%
[17]
  activity at 10 µM: -73.3%
[18]
  activity at 10 µM: -54.4%
[19]
  activity at 10 µM: -95.2%
[20]
  activity at 10 µM: -89.1%
[21]
  activity at 10 µM: -48.2%
[22]
  activity at 10 µM: -98.5%
[23]
  activity at 10 µM: -81.7%
[24]
  activity at 10 µM: -78.1%
[25]
  activity at 10 µM: -58.3%
[26]
  activity at 10 µM: -86.7%
[27]
  activity at 10 µM: -72.6%
[28]
  activity at 10 µM: -42%
[29]
  activity at 10 µM: -82.9%
[30]
  activity at 10 µM: -55.1%
[31]
  activity at 10 µM: -95.7%
[32]
  activity at 10 µM: -98.5%
[33]
  activity at 10 µM: -93.9%
[34]
  activity at 10 µM: -32.1%
[35]
  activity at 10 µM: -88.9%
[36]
  activity at 10 µM: -85.3%
[37]
  activity at 10 µM: -94.8%
[38]
  activity at 10 µM: -84.7%
[39]
  activity at 10 µM: -74.3%
[40]
  activity at 10 µM: -78%
[41]; 10 μM one-dose, on almost all tested cancer types and cell lines, negative = lethality
  growth rate: < −60%
[41]
  activity at 10 µM: -71.8%
